Measurements as given in US6358885B1, “Substituted phenylheterocyclic herbicides” (Mississippi State University, priority 1992, dated 2002).

Key:
sugar beet = experiment: Test C preemergence/postemergence greenhouse plant response rating 0 to 100; format: in vivo, Beta vulgaris; details: for Plant response rating, Sugar beet: 125 g/ha, 0 to 100 scale
Summary of the method: (§1)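 Compounds in non-phytotoxic solvent went onto sandy loam before emergence (seeded one day earlier) or onto plants at the one-to-four leaf stage. Duck salad was treated via flood water (~2.5 cm, maintained) over silt loam.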

ryegrass = experiment: as above; format: in vivo, Lolium multiflorum; details: for Plant response rating Ryegrass: 125 g/ha, 0 to 100 scale
Summary of the method: as §1

blackgrass [1] = experiment: as above; format: in vivo, Alopecurus myosuroides; details: for Plant response rating, Blackgrass: 125 g/ha, 0 to 100 scale
Summary of the method: as §1

rice = experiment: Test B preemergence/postemergence greenhouse plant response rating 0 to 10; format: in vivo, Oryza sativa; details: for Plant response rating, Rice: 0 to 10 scale
Summary of the method: (§2)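 Test chemicals were sprayed onto freshly planted seed and, concurrently, onto young plants between the one and four leaf stage. After a twelve- to sixteen-day greenhouse period, each species was visually compared with untreated controls.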

giant foxtail = experiment: Test C preemergence/postemergence greenhouse plant response rating 0 to 100; format: in vivo, Setaria faberii; details: for Plant response rating, Giant foxtail: 125 g/ha, 0 to 100 scale
Summary of the method: as §1

wild buckwheat = experiment: Test B preemergence/postemergence greenhouse plant response rating 0 to 10; format: in vivo, Polygonum convolvulus; details: for Plant response rating, Wild buckwheat: 0 to 10 scale
Summary of the method: as §2

barnyardgrass = experiment: Test C flood test plant response rating 0 to 100; format: in vivo, Echinochloa crus-galli
Summary of the method: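 Compounds in non-phytotoxic solvent applied preemergence to sandy loam one day after planting, postemergence at the 1–4 leaf stage, or to ~2.5 cm floodwater over silt loam.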

duck salad = experiment: Test C flood test plant response rating 0 to 100; format: in vivo, Heteranthera limosa
Summary of the method: as §1

bedstraw = experiment: Test B preemergence/postemergence greenhouse plant response rating 0 to 10; format: in vivo, Galium aparine; details: for Plant response rating, Bedstraw: 0 to 10 scale
Summary of the method: as §2

blackgrass [2] = experiment: as above; format: in vivo, Alopecurus myosuroides; details: for Plant response rating, Blackgrass: 0 to 10 scale
Summary of the method: as §2

cotton = experiment: as above; format: in vivo, Gossypium hirsutum; details: for Plant response rating, Cotton: 0 to 10 scale
Summary of the method: as §2

wheat = experiment: Test C preemergence/postemergence greenhouse plant response rating 0 to 100; format: in vivo, Triticum aestivum; details: for Plant response rating, Wheat: 125 g/ha, 0 to 100 scale
Summary of the method: as §1

lambsquarters = experiment: as above; format: in vivo, Chenopodium album; details: for Plant response rating Lambsquarters: 125 g/ha, 0 to 100 scale
Summary of the method: as §1

barley = experiment: Test B preemergence/postemergence greenhouse plant response rating 0 to 10; format: in vivo, Hordeum vulgare; details: for Plant response rating, Barley: 0 to 10 scale
Summary of the method: as §2

rape = experiment: Test C preemergence/postemergence greenhouse plant response rating 0 to 100; format: in vivo, Brassica napus; details: for Plant response rating, Rape: 125 g/ha, 0 to 100 scale
Summary of the method: as §1

cocklebur = experiment: Test B preemergence/postemergence greenhouse plant response rating 0 to 10; format: in vivo, Xanthium pensylvanicum; details: for Plant response rating, Cocklebur: 0 to 10 scale
Summary of the method: as §2

cheatgrass = experiment: as above; format: in vivo, Bromus secalinus; details: for Plant response rating, Cheatgrass: 0 to 10 scale
Summary of the method: as §2

corn = experiment: Test C preemergence/postemergence greenhouse plant response rating 0 to 100; format: in vivo, Zea mays; details: for Plant response rating, Corn: 125 g/ha, 0 to 100 scale
Summary of the method: as §1

[3] = POSTEMERGENCE section, flood test, Rate 2 g/ha
[4] = Rate 8 g/ha, under POSTEMERGENCE head (flood test species)
[5] = Rate 31 g/ha, under POSTEMERGENCE head (flood test species)
[6] = flood test species listed under POSTEMERGENCE, 125 g/ha, 0 to 100 scale

COCOc1cc(-c2nn3c(c2Cl)CCCC3)c(F)cc1Cl [Compound 58]
Plant response rating, Sugar beet (sugar beet; POSTEMERGENCE): 100
Plant response rating (0 to 100), Sugar beet (sugar beet; POSTEMERGENCE, Rate 2 g/ha): 100
Plant response rating, Sugar beet (sugar beet; PREEMERGENCE): 100
Plant response rating (0 to 100), Sugar beet (sugar beet; PREEMERGENCE, Rate 2 g/ha): 10
Plant response rating (0 to 100), Sugar beet (sugar beet; Rate 8 g/ha, POSTEMERGENCE): 100
Plant response rating (0 to 100), Sugar beet (sugar beet; Rate 8 g/ha, PREEMERGENCE): 85
Plant response rating (0 to 100), Sugar beet (sugar beet; Rate 31 g/ha, POSTEMERGENCE): 100
Plant response rating (0 to 100), Sugar beet (sugar beet; Rate 31 g/ha, PREEMERGENCE): 90
Plant response rating Ryegrass (ryegrass; POSTEMERGENCE): 85
Plant response rating (0 to 100), Ryegrass (ryegrass; POSTEMERGENCE, Rate 2 g/ha): 10
Plant response rating Ryegrass (ryegrass; PREEMERGENCE): 100
Plant response rating (0 to 100), Ryegrass (ryegrass; PREEMERGENCE, Rate 2 g/ha): 0
Plant response rating (0 to 100), Ryegrass (ryegrass; Rate 8 g/ha, POSTEMERGENCE): 30
Plant response rating (0 to 100), Ryegrass (ryegrass; Rate 8 g/ha, PREEMERGENCE): 0
Plant response rating (0 to 100), Ryegrass (ryegrass; Rate 31 g/ha, POSTEMERGENCE): 60
Plant response rating (0 to 100), Ryegrass (ryegrass; Rate 31 g/ha, PREEMERGENCE): 50
Plant response rating, Blackgrass (blackgrass [1]; POSTEMERGENCE): 85
Plant response rating (0 to 100), Blackgrass (blackgrass [1]; POSTEMERGENCE, Rate 2 g/ha): 20
Plant response rating, Blackgrass (blackgrass [1]; PREEMERGENCE): 70
Plant response rating (0 to 100), Blackgrass (blackgrass [1]; PREEMERGENCE, Rate 2 g/ha): 0
Plant response rating (0 to 100), Blackgrass (blackgrass [1]; Rate 8 g/ha, POSTEMERGENCE): 50
Plant response rating (0 to 100), Blackgrass (blackgrass [1]; Rate 8 g/ha, PREEMERGENCE): 20
Plant response rating (0 to 100), Blackgrass (blackgrass [1]; Rate 31 g/ha, POSTEMERGENCE): 65
Plant response rating (0 to 100), Blackgrass (blackgrass [1]; Rate 31 g/ha, PREEMERGENCE): 60
Plant response rating, Rice (rice; POSTEMERGENCE, Rate 50 g/ha): 4
Plant response rating, Rice (rice; PREEMERGENCE, Rate 50 g/ha): 0
Plant response rating (0 to 10 scale), Rice (rice; PREEMERGENCE, Rate 200 g/ha): 0
Plant response rating, Rice (rice; Rate 200 g/ha, POSTEMERGENCE): 5
Plant response rating, Giant foxtail (giant foxtail; POSTEMERGENCE): 100
Plant response rating (0 to 100), Giant foxtail (giant foxtail; POSTEMERGENCE, Rate 2 g/ha): 20
Plant response rating, Giant foxtail (giant foxtail; PREEMERGENCE): 100
Plant response rating (0 to 100), Giant foxtail (giant foxtail; PREEMERGENCE, Rate 2 g/ha): 0
Plant response rating (0 to 100), Giant foxtail (giant foxtail; Rate 8 g/ha, POSTEMERGENCE): 40
Plant response rating (0 to 100), Giant foxtail (giant foxtail; Rate 8 g/ha, PREEMERGENCE): 0
Plant response rating (0 to 100), Giant foxtail (giant foxtail; Rate 31 g/ha, POSTEMERGENCE): 70
Plant response rating (0 to 100), Giant foxtail (giant foxtail; Rate 31 g/ha, PREEMERGENCE): 60
Plant response rating, Wild buckwheat (wild buckwheat; POSTEMERGENCE, Rate 50 g/ha): 10
Plant response rating, Wild buckwheat (wild buckwheat; PREEMERGENCE, Rate 50 g/ha): 9
Plant response rating (0 to 10 scale), Wild buckwheat (wild buckwheat; PREEMERGENCE, Rate 200 g/ha): 10
Plant response rating, Wild buckwheat (wild buckwheat; Rate 200 g/ha, POSTEMERGENCE): 10
Plant response rating (0 to 100), Barnyardgrass 2 (barnyardgrass; [3]): 0
Plant response rating (0 to 100), Barnyardgrass 2 (barnyardgrass; [4]): 95
Plant response rating (0 to 100), Barnyardgrass 2 (barnyardgrass; [5]): 100
Plant response rating Barnyardgrass 2 (barnyardgrass; [6]): 100
Plant response rating (0 to 100), Duck salad (duck salad; [3]): 0
Plant response rating (0 to 100), Duck salad (duck salad; [4]): 20
Plant response rating (0 to 100), Duck salad (duck salad; [5]): 80
Plant response rating Duck salad (duck salad; [6]): 85
Plant response rating, Bedstraw (bedstraw; POSTEMERGENCE, Rate 50 g/ha): 10
Plant response rating, Bedstraw (bedstraw; PREEMERGENCE, Rate 50 g/ha): 6
Plant response rating (0 to 10 scale), Bedstraw (bedstraw; PREEMERGENCE, Rate 200 g/ha): 9
Plant response rating, Bedstraw (bedstraw; Rate 200 g/ha, POSTEMERGENCE): 9
Plant response rating, Blackgrass (blackgrass [2]; POSTEMERGENCE, Rate 50 g/ha): 6
Plant response rating, Blackgrass (blackgrass [2]; PREEMERGENCE, Rate 50 g/ha): 4
Plant response rating (0 to 10 scale), Blackgrass (blackgrass [2]; PREEMERGENCE, Rate 200 g/ha): 7
Plant response rating, Blackgrass (blackgrass [2]; Rate 200 g/ha, POSTEMERGENCE): 7
Plant response rating, Cotton (cotton; POSTEMERGENCE, Rate 50 g/ha): 10
Plant response rating, Cotton (cotton; PREEMERGENCE, Rate 50 g/ha): 0
Plant response rating (0 to 10 scale), Cotton (cotton; PREEMERGENCE, Rate 200 g/ha): 0
Plant response rating, Cotton (cotton; Rate 200 g/ha, POSTEMERGENCE): 10
Plant response rating, Wheat (wheat; POSTEMERGENCE): 60
Plant response rating (0 to 100), Wheat (wheat; POSTEMERGENCE, Rate 2 g/ha): 30
Plant response rating, Wheat (wheat; PREEMERGENCE): 30
Plant response rating (0 to 100), Wheat (wheat; PREEMERGENCE, Rate 2 g/ha): 0
Plant response rating (0 to 100), Wheat (wheat; Rate 8 g/ha, POSTEMERGENCE): 40
Plant response rating (0 to 100), Wheat (wheat; Rate 8 g/ha, PREEMERGENCE): 0
Plant response rating (0 to 100), Wheat (wheat; Rate 31 g/ha, POSTEMERGENCE): 50
Plant response rating (0 to 100), Wheat (wheat; Rate 31 g/ha, PREEMERGENCE): 10
Plant response rating Lambsquarters (lambsquarters; POSTEMERGENCE): 100
Plant response rating (0 to 100), Lambsquarters (lambsquarters; POSTEMERGENCE, Rate 2 g/ha): 50
Plant response rating Lambsquarters (lambsquarters; PREEMERGENCE): 100
Plant response rating (0 to 100), Lambsquarters (lambsquarters; PREEMERGENCE, Rate 2 g/ha): 0
Plant response rating (0 to 100), Lambsquarters (lambsquarters; Rate 8 g/ha, POSTEMERGENCE): 85
Plant response rating (0 to 100), Lambsquarters (lambsquarters; Rate 8 g/ha, PREEMERGENCE): 100
Plant response rating (0 to 100), Lambsquarters (lambsquarters; Rate 31 g/ha, POSTEMERGENCE): 100
Plant response rating (0 to 100), Lambsquarters (lambsquarters; Rate 31 g/ha, PREEMERGENCE): 100
Plant response rating, Barley (barley; POSTEMERGENCE, Rate 50 g/ha): 6
Plant response rating, Barley (barley; PREEMERGENCE, Rate 50 g/ha): 1
Plant response rating (0 to 10 scale), Barley (barley; PREEMERGENCE, Rate 200 g/ha): 4
Plant response rating, Barley (barley; Rate 200 g/ha, POSTEMERGENCE): 8
Plant response rating, Rape (rape; POSTEMERGENCE): 100
Plant response rating (0 to 100), Rape (rape; POSTEMERGENCE, Rate 2 g/ha): 30
Plant response rating, Rape (rape; PREEMERGENCE): 70
Plant response rating (0 to 100), Rape (rape; PREEMERGENCE, Rate 2 g/ha): 0
Plant response rating (0 to 100), Rape (rape; Rate 8 g/ha, POSTEMERGENCE): 50
Plant response rating (0 to 100), Rape (rape; Rate 8 g/ha, PREEMERGENCE): 0
Plant response rating (0 to 100), Rape (rape; Rate 31 g/ha, POSTEMERGENCE): 70
Plant response rating (0 to 100), Rape (rape; Rate 31 g/ha, PREEMERGENCE): 10
Plant response rating, Cocklebur (cocklebur; POSTEMERGENCE, Rate 50 g/ha): 6
Plant response rating, Cocklebur (cocklebur; PREEMERGENCE, Rate 50 g/ha): 0
Plant response rating (0 to 10 scale), Cocklebur (cocklebur; PREEMERGENCE, Rate 200 g/ha): 9
Plant response rating, Cocklebur (cocklebur; Rate 200 g/ha, POSTEMERGENCE): 10
Plant response rating, Cheatgrass (cheatgrass; POSTEMERGENCE, Rate 50 g/ha): 7
Plant response rating, Cheatgrass (cheatgrass; PREEMERGENCE, Rate 50 g/ha): 4
Plant response rating (0 to 10 scale), Cheatgrass (cheatgrass; PREEMERGENCE, Rate 200 g/ha): 8
Plant response rating, Cheatgrass (cheatgrass; Rate 200 g/ha, POSTEMERGENCE): 10
Plant response rating, Corn (corn; POSTEMERGENCE): 65
Plant response rating (0 to 100), Corn (corn; POSTEMERGENCE, Rate 2 g/ha): 40
Plant response rating, Corn (corn; PREEMERGENCE): 30
Plant response rating (0 to 100), Corn (corn; PREEMERGENCE, Rate 2 g/ha): 0
Plant response rating (0 to 100), Corn (corn; Rate 8 g/ha, POSTEMERGENCE): 40
Plant response rating (0 to 100), Corn (corn; Rate 8 g/ha, PREEMERGENCE): 0
Plant response rating (0 to 100), Corn (corn; Rate 31 g/ha, POSTEMERGENCE): 50
Plant response rating (0 to 100), Corn (corn; Rate 31 g/ha, PREEMERGENCE): 0
